# US20220062262A1, “GSNO REDUCTASE INHIBITOR AS AN ADJUNCT THERAPY WITH REMOTE ISCHEMIC CONDITIONING AND THROMBOLYTIC REPERFUSION THERAPIES IN STROKE” (KING ABDULAZIZ UNIVERSITY, priority 2020, published 2022)
# Assays:
# [1] = tested on: pMCAL-stroke (permanent occlusion of distal MCA trunk); experiment: Permanent MCA occlusion (pMCAo/pMCAL) stroke model in adult male and ovariectomized female mice; assay type: in vivo; conditions: 2.5 mg/kg IV 1 h after stroke, repeated daily for 2 days, males and OVX-females
# Method: The procedure for pMCAo was performed in mice as reported by Hoda et al. (Stroke 2012, 43(10):2794-2799). Briefly, under anesthesia, the junction of left zygomatic arch and squamous bone was drilled to make a 2-3 mm burr hole to expose the main trunk of MCA. The left MCA distal to the lenticulostriate branches was electrocauterized carefully without bleeding. The wound was closed, and mice were put under post-op recovery as described above. Sham-operated group underwent similar surgical procedures but without electrocauterization. Cortical LDF (Perimed Inc, Sweden) was performed to confirm the induction of stroke in anesthetized mice. Briefly, mice were anesthetized as above and a shallow indent was made in the parietal skull using a low-speed drill to place the LDF probe holder (PH07-6, Perimed Inc) aligning the holder hole at the stereotaxic coordinates (AP: 2-mm and lateral 3-mm with respect to bregma). The needle of LDF-probe (PH407, Perimed Inc) was inserted into the probe holder and the signal was recorded to confirm a significant drop in CBF following stroke. Mice were anesthetized as above, body temperature was maintained at 37±0.5 ° C., the skull was shaved, and a midline skin incision was made to primarily expose the MCA region. Perfusion images were acquired using PeriCam high resolution LASCA-Imager (PSI-Z system, Perimed Inc.) with a 70-mW built-in laser diode for illumination and 1388×1038 pixels CCD camera installed 10 cm above the skull (speed 19 Hz, and exposure time 6 mSec, 1.3 x 1.3 cm). Acquired video and images were analyzed for the dynamic changes in CBF. Overall perfusion of the ipsilateral ischemic hemisphere was determined, normalized with the equal size of region of interest (ROI) from the uninjured contralateral hemisphere and the relative CBF was calculated. […] Therefore, larger white area indicates higher injury and infarction volume. […] Performance of each mouse on the narrow beam was quantified by measuring the time it took for the mouse to traverse the 100-cm distance on the narrow beam and the number of foot slips that occurred in each trial. […]
# [2] = tested on: tMCAo stroke in STZ-induced diabetic mice; experiment: Reperfused tMCAo stroke model in STZ-induced diabetic male mice, with or without RIC therapy; assay type: in vivo; conditions: for brain tissue oxygenation (PbtO2): 6 h post-reperfusion; for % infarct volume / % swelling / mean NDS: 24 h post-stroke
# Description: The tMCAo surgical procedure is similar to TE-stroke surgery, however, the transient occlusion is achieved using a suture instead of a clot as reported by Hoda et al (supra). Briefly, a 6-0 monofilament suture with ˜3-mm silicone-coated tip designed to induce tMCAo in mice (Doccol Corp, USA) was introduced into the ICA via an ECA stump, directed and gently advanced into the MCA region until the suture was wedged to occlude the proximal stem of MCA. The occlusion was maintained prior to withdrawing the filament after […], the ECA- arteriotomy was ligated and the reperfusion was allowed following suture withdrawal. The sham-operated group underwent similar procedures without occlusion, and mice recovered as above.
# TTC is a white powder and the solution remains colorless, which is reduced to red 1,3,5-triphenylformazan (TPF) by the enzymatic action of various dehydrogenases primarily mitochondrial dehydrogenase from the living tissues, while the core remains as white. Therefore, larger white area indicates higher injury and infarction volume. After performing ATT, mice were overdosed and deeply anesthetized with high isofluorane (5%). Brains were very quickly perfused with cold 25 ml of 0.01 M phosphate-buffered saline (PBS), harvested fresh and immediately placed in a metallic mouse brain matrix. Looking at the infarcted area, 5 blades were placed in alternate gaps to cut and obtain […] coronal slices. Sections were individually placed in a 35-mm dish containing pre-warmed (37° C.) 3-ml of 5% TTC in PBS (Sigma) for 20-25 minutes at 37° C., followed by 2× washing with cold PBS and fixation with 10% formalin. In order to image, fixed sections were taken out of the dish and placed in order on a high-resolution Cannon Scanner. After scanning, images were cropped and saved for analysis. Corrected infarct volume was estimated using gray scale image and Scion Image software and presented as the Corrected % infarct volume normalized to the uninjured side.
# Diabetes was induced in adult male mice (14±1 weeks of age) as confirmed after 7 days of STZ-injection, followed by tMCAo stroke surgery at 3 weeks post-STZ injection. Stroke was induced with 60-min suture occlusion followed by reperfusion with suture withdrawal. GRI therapy or vehicle was IV-infused 10-min prior to reperfusion and RIC therapy/ RIC-mock was performed 1 h after reperfusion. […] PbtO2 was measured at 6h post-reperfusion (N=6/gp) using a 50-um thick oxygen sensor integrated to an UniAmp multi-channel system (Unisense, Denmark). Measurement signal was averaged for 3 min during a period of stable output as shown in the representative real-time electrogram traces in FIGS. 9A-9D. FIG. 9A is representative of a mouse treated with vehicle and receiving mock RIC. FIG. 9B is representative of a mouse receiving vehicle and RIC therapy. FIG. 9C is representative of a mouse receiving GRI therapy and mock RIC. FIG. 9D is representative of a mouse receiving GRI therapy and RIC therapy.
# Diabetic adult male mice (as described in Example 4) were subjected to tMCAo (N=10/gp) with or without GRI and/or RIC-therapies and outcome measures were performed at 24h post-stroke.
# [3] = low-dose GRI combined with RIC therapy, vs all other 3 groups
smiles,measurement,setting,value
"Cc1cc(C(N)=O)ccc1-n1c(CCC(=O)O)ccc1-c1ccc(-n2ccnc2)cc1 [GRI therapy, N6022]","restoration of CBF (% CBF, LSCI) vs vehicle",[1]; 72 h post-pMCAo,improved restoration of CBF in both sexes significantly
same,infarct progression (TTC infarct volume),[1]; 72 h post-stroke,significantly prevented the infarct progression sex-independently in both groups
same,"motor function, narrow beam walk test (time to traverse, foot slips)",[1]; 72 h post-stroke,equally effective in improving motor function in both sexes
same,brain tissue oxygenation (PbtO2),[2]; GRI IV 10 min prior to reperfusion followed by RIC therapy 1 h after reperfusion,"showed enhanced efficacy of both, GRI and RIC-therapies, in improving benefits of reperfusion to increase PbtO2"
same,brain tissue oxygenation (PbtO2),"[2]; GRI alone (RIC-mock), IV 10 min prior to reperfusion, vs vehicle RIC-mock",improved PbtO2 significantly
same,% infarct volume,"[2]; GRI singly (RIC-mock), N=10/gp",did not improve
same,% swelling,"[2]; GRI singly (RIC-mock), N=10/gp",did not improve
same,mean NDS,"[2]; GRI singly (RIC-mock), N=10/gp",did not improve
same,% infarct volume,[2]; [3],significantly improved
same,% swelling,[2]; [3],significantly improved
same,mean NDS,[2]; [3],significantly improved
